According to paper PMC9360399, “Alterations to the broad-spectrum formin inhibitor SMIFH2 modulate potency but not specificity” (Scientific Reports, 2022):
“Also recorded” adds a separate entry of the source.

Tests used:
DIAPH2 = target: T1, DIAPH2 (Homo sapiens, UniProt O60879); assay: pyrene-actin polymerization assay, DIAPH2-FFC; format: biochemical
T1 construct: UniProt O60879-2, aa 553–1096; 6-histidine tag (N); made in house; host or cells: ROSETTA-DE3 E. coli
Protocol: (§1) Several SMIFH2 analogs are known to retain or lose inhibitory activity against mDia1[18]. We sought to expand this dataset to more extensively characterize structure–activity relationships in the SMIFH2/formin complex. All 17 analogs shown in Fig. 4 were synthesized according to the scheme described in the Experimental Procedures (Fig. 6) and characterized by proton NMR (Fig. S8). Each inhibitor was tested for potential interaction with actin in the absence of formin (Figs. S3, S4). […] This panel of 18 inhibitors was tested against five formin FFC fragments (DIAPH1, DIAPH2, INF2, FMNL3, and FMN2), and the IC50 values were measured (Fig. 4 and Table 1). One notable trend in this dataset is that the lack of specificity, noted above for SMIFH2 (Fig. 3), holds for its analogs: no modifications made to SMIFH2 led to a selective inhibitor, at least among the five formins that were tested.
(§2) Figure 4 Structure activity data for SMIFH2 and 17 analogs tested against five human formins. Each individual data point indicates an IC50 value from a titration of inhibitor in the pyrene-actin assembly assay. Conditions: 2 µM actin (5% pyrene-labeled), 4 µM S. pombe profilin, formin (5 nM DIAPH1-FFC, 5 nM DIAPH2-FFC, 5 nM INF2-FFC, 20–37.5 nM FMN2-FFC, 20 nM FMNL3-FFC), inhibitor with a fixed volume of DMSO. […] Because we cannot reliably measure IC50 values above 40 µM, those points are indicated at the > 40 µM line.
(§3) Assays were carried out as described. Rabbit skeletal muscle actin (5% pyrene labeled) was incubated for 2 min at 25 °C with 200 μM EGTA and 50 μM MgCl2 to convert Ca-actin to Mg-actin. When included in the experiment, a 2:1 molar ratio of profilin was incubated with actin for 2 min at 25 °C before conversion to Mg-actin. Polymerization was initiated by adding polymerization buffer (KMEH, final concentration: 10 mM HEPES, pH 7.0, 1 mM EGTA, 50 mM KCl, 1 mM MgCl2). Prior to mixing KMEH with actin, formins and then the inhibitor in DMSO or DMF was added at ≤ 1% of the total volume. Finally, this mixture was rapidly mixed with Mg-actin, with approximately 10–20 s dead time prior to measurement. Fluorescence was monitored every 15 s using a TECAN F200 Pro with λex = 360 ± 17 nm and λem = 415 ± 10 nm. The same volume of organic solvent (DMSO or DMF) was added to each well regardless of inhibitor concentration.

FMNL3 = target: T2, FMNL3 (Homo sapiens, UniProt Q8IVF7); assay: pyrene-actin polymerization assay, FMNL3-FFC; format: biochemical
T2 construct: UniProt Q8IVF7-1, aa 481-1028; 6-histidine tag (N); made in house; host or cells: ROSETTA-DE3 E. coli
T2 sequence (Q8IVF7 481-1028): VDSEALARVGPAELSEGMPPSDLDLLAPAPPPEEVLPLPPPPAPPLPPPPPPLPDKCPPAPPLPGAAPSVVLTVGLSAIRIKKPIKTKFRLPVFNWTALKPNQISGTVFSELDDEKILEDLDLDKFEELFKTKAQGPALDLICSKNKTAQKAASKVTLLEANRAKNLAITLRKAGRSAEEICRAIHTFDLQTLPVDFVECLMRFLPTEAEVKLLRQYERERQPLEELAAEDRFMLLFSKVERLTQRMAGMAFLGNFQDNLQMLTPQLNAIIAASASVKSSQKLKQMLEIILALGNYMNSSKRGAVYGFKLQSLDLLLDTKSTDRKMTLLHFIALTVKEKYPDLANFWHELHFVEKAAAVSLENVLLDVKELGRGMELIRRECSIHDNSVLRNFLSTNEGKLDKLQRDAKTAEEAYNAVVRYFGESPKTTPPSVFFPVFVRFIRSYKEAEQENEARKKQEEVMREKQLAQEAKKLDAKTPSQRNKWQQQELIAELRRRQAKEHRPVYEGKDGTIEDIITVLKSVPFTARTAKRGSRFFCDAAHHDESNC
Protocol: as §1, §2, §3

DIAPH1 = DIAPH1 (Homo sapiens, UniProt O60610); assay: pyrene-actin polymerization assay, DIAPH1-FFC; format: biochemical
Sequence of DIAPH1 (O60610 769-1222 limits assumed): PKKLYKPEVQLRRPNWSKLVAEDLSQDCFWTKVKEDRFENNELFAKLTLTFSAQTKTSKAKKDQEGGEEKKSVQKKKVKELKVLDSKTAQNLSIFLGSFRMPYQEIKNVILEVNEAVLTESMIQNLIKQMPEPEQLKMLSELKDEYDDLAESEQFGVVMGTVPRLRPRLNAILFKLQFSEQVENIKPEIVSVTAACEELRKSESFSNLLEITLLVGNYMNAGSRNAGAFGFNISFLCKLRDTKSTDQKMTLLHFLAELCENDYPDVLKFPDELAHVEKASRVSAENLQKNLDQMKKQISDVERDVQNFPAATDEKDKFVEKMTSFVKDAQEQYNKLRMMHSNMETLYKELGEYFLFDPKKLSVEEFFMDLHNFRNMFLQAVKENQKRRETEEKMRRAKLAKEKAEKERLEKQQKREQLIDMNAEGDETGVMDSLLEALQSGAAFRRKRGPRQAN
Protocol: as §1, §2, §3

FMN2 = target: T3, FMN2 (Homo sapiens, UniProt Q9NZ56); assay: pyrene-actin polymerization assay, FMN2-FFC; format: biochemical
T3 construct: UniProt Q9NZ56-1, aa 1192-1722; 6-histidine tag (N); made in house; host or cells: ROSETTA-DE3 E. coli
T3 sequence (Q9NZ56 1192-1722): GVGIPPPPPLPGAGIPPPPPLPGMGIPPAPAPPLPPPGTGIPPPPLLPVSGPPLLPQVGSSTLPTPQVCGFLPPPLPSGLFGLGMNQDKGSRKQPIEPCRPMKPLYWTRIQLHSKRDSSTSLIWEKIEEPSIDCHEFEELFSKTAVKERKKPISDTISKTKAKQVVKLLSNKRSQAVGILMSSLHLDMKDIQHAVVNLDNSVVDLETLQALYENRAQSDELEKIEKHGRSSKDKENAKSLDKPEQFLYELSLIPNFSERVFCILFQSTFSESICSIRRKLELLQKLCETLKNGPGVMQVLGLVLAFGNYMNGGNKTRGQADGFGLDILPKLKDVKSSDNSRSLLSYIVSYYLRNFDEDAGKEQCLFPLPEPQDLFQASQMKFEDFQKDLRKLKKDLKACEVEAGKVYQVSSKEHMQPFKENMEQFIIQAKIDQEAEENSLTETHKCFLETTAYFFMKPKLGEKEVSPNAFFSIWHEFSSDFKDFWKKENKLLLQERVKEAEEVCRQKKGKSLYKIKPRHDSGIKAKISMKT
Protocol: as §1, §2, §3

INF2 = target: T4, INF2 (Homo sapiens, UniProt Q27J81); assay: pyrene-actin polymerization assay, INF2-FFC; format: biochemical
T4 construct: UniProt Q27J81-1, aa 469–1249; 6-histidine tag (N); made in house; host or cells: ROSETTA-DE3 E. coli
T4 sequence (Q27J81 469-1249): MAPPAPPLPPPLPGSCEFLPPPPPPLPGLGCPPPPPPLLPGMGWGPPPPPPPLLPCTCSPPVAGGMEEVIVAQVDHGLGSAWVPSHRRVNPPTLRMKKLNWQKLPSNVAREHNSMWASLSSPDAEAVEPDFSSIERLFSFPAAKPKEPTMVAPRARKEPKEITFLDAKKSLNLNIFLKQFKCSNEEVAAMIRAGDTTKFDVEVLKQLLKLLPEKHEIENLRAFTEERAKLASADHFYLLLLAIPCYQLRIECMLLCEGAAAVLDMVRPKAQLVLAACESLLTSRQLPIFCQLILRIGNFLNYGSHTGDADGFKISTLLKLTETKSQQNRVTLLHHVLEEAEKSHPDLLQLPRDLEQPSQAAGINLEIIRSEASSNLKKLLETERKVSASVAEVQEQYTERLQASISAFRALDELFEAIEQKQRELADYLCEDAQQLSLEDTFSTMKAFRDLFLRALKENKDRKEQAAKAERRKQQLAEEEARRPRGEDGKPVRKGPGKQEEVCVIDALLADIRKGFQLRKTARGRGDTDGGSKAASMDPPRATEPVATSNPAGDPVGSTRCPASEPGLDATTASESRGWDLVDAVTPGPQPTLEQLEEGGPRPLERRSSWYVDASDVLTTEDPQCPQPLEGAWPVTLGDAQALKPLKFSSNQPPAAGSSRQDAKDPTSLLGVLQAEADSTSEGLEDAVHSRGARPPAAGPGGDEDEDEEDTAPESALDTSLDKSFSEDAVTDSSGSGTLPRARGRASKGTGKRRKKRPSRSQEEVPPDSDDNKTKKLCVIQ
Protocol: as §1, §2, §3

Drosophila myosin 5 = test system: Drosophila myosin 5; design: method as in PMID 33589498; conditions: read-out: IC50 actin-induced ATPase activity of Drosophila myosin 5; cited from earlier work
mouse Dia1 = test system: mouse Dia1; design: method as in PMID 19942139; conditions: reported value; cited from earlier work
formin = test system: formin; design: method as in PMID 33589498; conditions: read-out: IC50 formin/mediated actin interactions; cited from earlier work
human formins = assay: pyrene-actin polymerization assay, panel of human formin FFC fragments; format: biochemical; conditions: for inhibitory activity against formins tested (in words): five formin FFC fragments (DIAPH1, DIAPH2, INF2, FMNL3, FMN2); for fold change in potency (IC50) compared with SMIFH2 (1): depending on the formin
Protocol: Figure 3 SMIFH2 has broad activity across the human formins. For each titration, pyrene fluorescence was monitored for 2 μM actin (5% pyrene-labeled)/ 4 μM S. pombe profilin. […] Increasing concentration of SMIFH2 is indicated by blue traces, with the µM concentration labeled to the right of each plot. The volume of DMSO added was the same for all traces, regardless of SMIFH2 concentration.
To characterize the specificity of SMIFH2, we titrated the inhibitor against each purified formin, controlling for the volume of DMSO for all polymerization reactions (Fig. 3, as indicated by blue traces).
as §1, §3

solubility in DMSO = format: physicochemical; conditions: had to be dissolved in DMF for assays

T1 sequence (O60879 553-1096 isoform O60879-2): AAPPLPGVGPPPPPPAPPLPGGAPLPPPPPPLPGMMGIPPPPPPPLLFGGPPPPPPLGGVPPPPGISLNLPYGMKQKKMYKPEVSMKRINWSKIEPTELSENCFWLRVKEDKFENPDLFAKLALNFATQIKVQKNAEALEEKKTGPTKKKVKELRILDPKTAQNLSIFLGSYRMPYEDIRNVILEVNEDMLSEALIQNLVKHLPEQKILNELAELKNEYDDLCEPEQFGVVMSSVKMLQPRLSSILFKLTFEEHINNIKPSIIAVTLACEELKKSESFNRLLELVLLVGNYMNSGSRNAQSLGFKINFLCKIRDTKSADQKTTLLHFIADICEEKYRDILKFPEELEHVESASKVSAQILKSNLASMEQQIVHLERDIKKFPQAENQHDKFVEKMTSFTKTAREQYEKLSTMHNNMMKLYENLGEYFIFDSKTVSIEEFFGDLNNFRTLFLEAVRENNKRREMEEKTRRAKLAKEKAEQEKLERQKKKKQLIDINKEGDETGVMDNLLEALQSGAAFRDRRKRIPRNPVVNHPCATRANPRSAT

SMILES	IC50 (DIAPH2)	IC50 (FMNL3)	IC50 (DIAPH1)	IC50 (FMN2)	IC50 (INF2)	IC50 (Drosophila myosin 5)	IC50 (mouse Dia1)	IC50 (formin)	inhibitory activity against formins tested (in words) (human formins)	fold change in potency (IC50) compared with SMIFH2 (1) (human formins)	solubility (solubility in DMSO)
CCN1C(=O)C(=Cc2ccco2)C(=O)N(c2cccc(Br)c2)C1=S [Compound 3]	> 40 µM	40 µM	> 40 µM	> 40 µM	> 40 µM						
O=C1NC(=S)N(c2ccc(Br)cc2)C(=O)C1=Cc1ccc(Cl)o1 [Compound 14]	4 ± 1 µM	10 µM	14 ± 2 µM	15 µM	8 ± 1 µM						
COc1ccc(N2C(=O)C(=Cc3cc(Br)co3)C(=O)NC2=S)cc1 [Compound 13]	3.3 ± 0.2 µM	4 ± 1 µM			6 ± 2 µM						
O=C1NC(=S)N(c2cccc(Br)c2)C(=O)C1=Cc1ccco1 [Compound 1, 1-(3-bromophenyl)-5-(furan-2-ylmethylene)-2-thioxodihydropyrimidine-4,6(1H,5H)-dione, reference compound]	6 ± 3 µM	21 ± 7 µM	30 ± 10 µM	10 ± 3 µM	10 ± 5 µM	~2 µM	15 µM	10 to 20 µM			
CN1C(=O)C(=Cc2ccco2)C(=O)N(c2cccc(Br)c2)C1=S [Compound 2]	5 ± 5 µM	4 ± 1 µM	13 ± 3 µM	14 ± 2 µM	5 ± 2 µM				well tolerated		
COc1ccc(N2C(=O)C(=Cc3ccc(Br)o3)C(=O)NC2=S)cc1 [Compound 11]	2 ± 1.4 µM	7 ± 1 µM	8 ± 2 µM	10 ± 1 µM	3 ± 2 µM						
O=C1NC(=S)N(c2cccc(Br)c2)C(=O)C1=Cc1cccs1 [Compound 7]	> 40 µM	> 40 µM	> 40 µM		> 40 µM				no detectable inhibitory effect		
COc1ccc(N2C(=O)C(=Cc3ccco3)C(=O)NC2=S)cc1 [Compound 10]	12 ± 8 µM	17 ± 6 µM	27 ± 12 µM	23 ± 4 µM	37 ± 16 µM				reduced activity		
O=C1NC(=S)N(c2cccc(Br)c2)C(=O)C1=Cc1ccc(Br)o1 [Compound 16]	9 ± 1 µM	14 ± 5 µM	30 ± 10 µM	25 ± 5 µM	7 ± 3 µM				well tolerated		
Cc1ccc(C=C2C(=O)NC(=S)N(c3cccc(Br)c3)C2=O)o1 [Compound 17]	> 40 µM	> 40 µM	> 40 µM	> 40 µM	> 40 µM				abolished activity		
O=C1C(=Cc2ccco2)C(=O)N(c2cccc(Br)c2)C(=S)N1c1ccccc1 [Compound 4]	2.3 ± 1.7 µM	4 ± 1 µM	11 ± 7 µM	9 ± 1 µM	4 ± 1 µM				well tolerated	3–fourfold more potent	
COc1ccc(N2C(=O)C(=Cc3ccc(Cl)o3)C(=O)NC2=S)cc1 [Compound 12]	1 ± 0.2 µM	3 ± 2 µM	4 ± 1 µM	5 ± 3 µM	2 ± 1 µM				most potent inhibitor	two–ninefold	
O=C1NC(=S)N(c2ccccc2)C(=O)C1=Cc1ccco1 [Compound 9]	40 µM	> 40 µM	> 40 µM		30 µM				measurable but weak to minimal activity		low solubility; also recorded: poorly soluble in DMSO
O=C1NC(=O)N(c2cccc(Br)c2)C(=O)C1=Cc1ccco1 [Compound 5]	> 40 µM	> 40 µM	> 40 µM	> 40 µM	> 40 µM				complete loss of inhibitory activity		
O=C1NC(=S)N(c2ccc(Br)cc2)C(=O)C1=Cc1ccco1 [Compound 8]	3 ± 1 µM	6 ± 3 µM	8 ± 3 µM	8 ± 4 µM	7 ± 2 µM				maintained or slightly enhanced inhibitory activity		
O=C1NC(=S)N(c2cccc(Br)c2)C(=O)C1=Cc1ccc(Cl)o1 [Compound 15]	4 ± 1 µM	7 ± 1 µM	12 ± 6 µM	11 ± 4 µM	4 ± 1 µM				well tolerated		
O=C1NC(=S)N(c2cccc(Br)c2)C(=O)/C1=C/C=C/c1ccco1 [Compound 18]	20 µM				> 40 µM				modest activity		
O=C1NC(=S)N(c2cccc(Br)c2)C(=O)C1=Cc1ccc[nH]1 [Compound 6]	> 40 µM	> 40 µM	> 40 µM	> 40 µM	> 40 µM				no detectable inhibitory effect		
